Laboratory results: ChEMBL document CHEMBL1146719, “Lysyl 4-aminobenzoic acid derivatives as potent small molecule mimetics of plasminogen kringle 5” (Bioorg Med Chem Lett, 2004)
Peptide text beside a SMILES is read from it.

Species on record: Homo sapiens
Test: Inhibition of VEGF-stimulated migration of human microvascular endothelial cells
Assay type: functional, cell-based
Details: Endothelial cell

IC50: 1.2 nM
SMILES: CC(=O)N[C@@H](CCCCN)C(=O)N[C@@H](CC(C)C)C(=O)N[C@@H](Cc1ccc(O)cc1)C(=O)N[C@@H](CC(=O)O)C(=O)O (Ac-KLYD-OH)
